Columns and labels:
full-length ATR = full-length ATR (Homo sapiens (Human), UniProt Q13535); assay: ATR inhibition assay (radioactive-phosphate incorporation); assay type: biochemical
Procedure: Compounds can be screened for their ability to inhibit ATR kinase using a radioactive-phosphate incorporation assay. Assays are carried out in a mixture of 50 mM Tris/HCl (pH 7.5), 10 mM MgCl2 and 1 mM DTT. Final substrate concentrations are 10 μM [γ-33P]ATP (3 mCi 33P ATP/mmol ATP, Perkin Elmer) and 800 μM target peptide ([sequence]).
Assays are carried out at 25° C. in the presence of 5 nM full-length ATR. An assay stock buffer solution is prepared containing all of the reagents listed above, with the exception of ATP and the test compound of interest. […] The plate is pre-incubated for 10 minutes at 25° C. and the reaction initiated by addition of 15 μL [γ-33P]ATP (final concentration 10 μM).
The reaction is stopped after 24 hours by the addition of 30 μL 0.1M phosphoric acid containing 2 mM ATP. A multiscreen phosphocellulose filter 96-well plate (Millipore, Cat no. MAPHNOB50) is pretreated with 100 μL 0.2M phosphoric acid prior to the addition of 45 μL of the stopped assay mixture. […]
After removing mean background values for all of the data points, Ki(app) data are calculated from non-linear regression analysis of the initial rate data using the Prism software package (GraphPad Prism version 3.0cx for Macintosh, GraphPad Software, San Diego Calif., USA).

[1] = system: HCT116 colorectal cancer cells; assay: Cisplatin sensitization assay, 96 h cell viability (MTS); assay type: cell-based; conditions: concentration of compound required to reduce the IC50 of Cisplatin alone by at least 3-fold; HCT116, 96 h MTS
Procedure: Compounds can be screened for their ability to sensitize HCT116 colorectal cancer cells to Cisplatin using a 96 h cell viability (MTS) assay. […] Compounds and Cisplatin are then both added simultaneously to the cell media in 2-fold serial dilutions from a top final concentration of 10 μM as a full matrix of concentrations in a final cell volume of 200 μl, and the cells are then incubated at 37° C. in 5% CO2. After 96 h, 40 μl of MTS reagent (Promega G358a) is added to each well and the cells are incubated for 1 h at 37° C. in 5% CO2.

[2] = system: HCT116 colorectal cancer cells; assay: Single agent HCT116 activity, 96 h cell viability (MTS) assay; assay type: cell-based; conditions: Homo sapiens, HCT-116, 96 h MTS viability, read-out: Single agent HT116 IC50
Procedure: Compounds can be screened for single agent activity against HCT116 colorectal cancer cells using a 96 h cell viability (MTS) assay. HCT116 are plated at 470 cells per well in 96-well polystyrene plates (Costar 3596) in 150 μl of McCoy's 5A media (Sigma M8403) supplemented with 10% foetal bovine serum (JRH Biosciences 12003), Penicillin/Streptomycin solution diluted 1:100 (Sigma P7539), and 2 mM L-glumtamine (Sigma G7513), and allowed to adhere overnight at 37° C. in 5% CO2. Compounds are then added to the cell media in 2-fold serial dilutions from a top final concentration of 10 μM as a full matrix of concentrations in a final cell volume of 200 μl, and the cells are then incubated at 37° C. in 5% CO2. After 96 h, 40 μl of MTS reagent (Promega G358a) is added to each well and the cells are incubated for 1 h at 37° C. in 5% CO2. Finally, absorbance is measured at 490 nm using a SpectraMax Plus 384 reader (Molecular Devices) and IC50 values can be calculated.

Chain of full-length ATR (Q13535 whole entry): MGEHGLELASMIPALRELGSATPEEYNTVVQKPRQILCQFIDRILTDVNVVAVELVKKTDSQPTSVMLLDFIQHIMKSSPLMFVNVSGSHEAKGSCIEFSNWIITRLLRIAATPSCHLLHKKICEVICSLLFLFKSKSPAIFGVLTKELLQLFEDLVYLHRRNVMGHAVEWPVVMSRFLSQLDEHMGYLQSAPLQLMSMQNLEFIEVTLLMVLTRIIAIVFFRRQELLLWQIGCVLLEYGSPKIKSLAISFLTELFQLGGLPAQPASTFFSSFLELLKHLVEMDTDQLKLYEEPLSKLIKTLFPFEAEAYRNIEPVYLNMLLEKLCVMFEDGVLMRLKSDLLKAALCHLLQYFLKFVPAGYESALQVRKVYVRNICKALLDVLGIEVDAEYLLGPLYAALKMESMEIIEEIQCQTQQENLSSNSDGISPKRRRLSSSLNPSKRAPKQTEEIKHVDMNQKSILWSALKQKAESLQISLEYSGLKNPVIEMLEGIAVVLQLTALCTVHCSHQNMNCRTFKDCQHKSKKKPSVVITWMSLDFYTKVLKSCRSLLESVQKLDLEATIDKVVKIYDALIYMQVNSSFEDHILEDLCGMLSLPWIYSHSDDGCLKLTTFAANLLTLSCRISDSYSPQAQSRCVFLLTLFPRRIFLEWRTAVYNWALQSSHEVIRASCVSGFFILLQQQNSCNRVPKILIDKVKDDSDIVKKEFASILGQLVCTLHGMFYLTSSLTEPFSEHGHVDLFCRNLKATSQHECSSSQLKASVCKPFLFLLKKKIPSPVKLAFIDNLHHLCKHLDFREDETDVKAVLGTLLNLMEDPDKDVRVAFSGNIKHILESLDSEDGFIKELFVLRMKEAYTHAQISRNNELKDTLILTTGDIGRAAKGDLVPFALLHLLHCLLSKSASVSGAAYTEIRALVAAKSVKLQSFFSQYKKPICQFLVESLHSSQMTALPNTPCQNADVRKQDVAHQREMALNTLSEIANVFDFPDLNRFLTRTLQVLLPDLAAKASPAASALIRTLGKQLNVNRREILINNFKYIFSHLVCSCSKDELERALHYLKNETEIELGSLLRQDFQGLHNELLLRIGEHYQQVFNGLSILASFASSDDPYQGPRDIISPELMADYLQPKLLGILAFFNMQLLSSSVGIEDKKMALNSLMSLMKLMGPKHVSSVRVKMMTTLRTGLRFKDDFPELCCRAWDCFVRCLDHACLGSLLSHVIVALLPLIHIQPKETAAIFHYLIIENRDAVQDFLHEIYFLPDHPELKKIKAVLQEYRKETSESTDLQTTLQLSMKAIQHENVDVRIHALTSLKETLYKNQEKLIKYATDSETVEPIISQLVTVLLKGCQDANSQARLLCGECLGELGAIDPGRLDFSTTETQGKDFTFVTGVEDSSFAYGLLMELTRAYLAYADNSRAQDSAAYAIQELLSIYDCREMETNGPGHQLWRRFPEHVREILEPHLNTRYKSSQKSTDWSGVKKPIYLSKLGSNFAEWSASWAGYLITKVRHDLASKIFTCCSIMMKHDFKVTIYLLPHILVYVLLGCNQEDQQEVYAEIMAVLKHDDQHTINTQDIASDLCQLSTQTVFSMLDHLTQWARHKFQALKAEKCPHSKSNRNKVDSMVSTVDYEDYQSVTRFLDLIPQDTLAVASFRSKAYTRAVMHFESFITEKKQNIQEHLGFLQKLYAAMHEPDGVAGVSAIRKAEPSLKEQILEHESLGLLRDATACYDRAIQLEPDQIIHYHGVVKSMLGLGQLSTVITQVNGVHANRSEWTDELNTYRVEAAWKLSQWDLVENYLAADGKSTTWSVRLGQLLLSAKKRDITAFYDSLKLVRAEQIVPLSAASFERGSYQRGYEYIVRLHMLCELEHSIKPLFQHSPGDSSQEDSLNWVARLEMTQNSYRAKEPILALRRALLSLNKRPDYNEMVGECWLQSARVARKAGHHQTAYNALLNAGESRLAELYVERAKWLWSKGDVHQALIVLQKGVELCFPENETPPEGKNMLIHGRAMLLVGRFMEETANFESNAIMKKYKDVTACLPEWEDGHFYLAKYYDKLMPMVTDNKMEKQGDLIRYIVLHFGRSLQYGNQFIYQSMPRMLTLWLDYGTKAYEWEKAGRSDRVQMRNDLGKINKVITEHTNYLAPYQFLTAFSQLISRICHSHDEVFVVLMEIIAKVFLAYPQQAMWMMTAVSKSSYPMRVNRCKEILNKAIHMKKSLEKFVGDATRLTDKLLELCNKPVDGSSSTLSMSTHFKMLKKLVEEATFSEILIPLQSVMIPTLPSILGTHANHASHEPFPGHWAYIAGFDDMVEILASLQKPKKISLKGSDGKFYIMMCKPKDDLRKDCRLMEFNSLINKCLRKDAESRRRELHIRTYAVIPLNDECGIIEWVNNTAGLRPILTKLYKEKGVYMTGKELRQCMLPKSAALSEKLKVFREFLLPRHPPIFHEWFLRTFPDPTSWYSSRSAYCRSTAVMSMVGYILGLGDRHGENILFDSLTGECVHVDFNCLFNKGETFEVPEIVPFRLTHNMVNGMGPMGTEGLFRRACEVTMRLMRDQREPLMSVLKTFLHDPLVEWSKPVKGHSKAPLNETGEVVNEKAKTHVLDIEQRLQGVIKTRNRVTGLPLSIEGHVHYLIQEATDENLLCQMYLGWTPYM

Compound	IC50 [2] [nM]	Ki (full-length ATR) [nM]	Cisplatin sensitization [1] [nM]
5-(4-(tert-butylsulfonyl)phenyl)-3-(3-(4-((methylamino)methyl)phenyl)isoxazol-5-yl)pyrazin-2-amine [Compound I-2]	–	< 1	–
[2H]C([2H])([2H])NCc1ccc(-c2cc(-c3nc(-c4ccc(S(=O)(=O)C(C)C)cc4)cnc3N)on2)cc1 [II-3, 5-(4-isopropylsulfonylphenyl)-3-[3-[4-[(trideuteriomethylamino)methyl]phenyl]isoxazol-5-yl]pyrazin-2-amine]	66	–	39
[2H]C([2H])([2H])NC([2H])([2H])c1ccc(-c2cc(-c3nc(-c4ccc(S(=O)(=O)C(C)C)cc4)cnc3N)on2)cc1 [II-2, 3-[3-[4-[dideuterio-(trideuteriomethylamino)methyl]phenyl]isoxazol-5-yl]-5-(4-isopropylsulfonylphenyl)pyrazin-2-amine]	46	–	29
[2H]C([2H])(NC)c1ccc(-c2cc(-c3nc(-c4ccc(S(=O)(=O)C(C)C)cc4)cnc3N)on2)cc1 [II-1, 3-[3-[4-[dideuterio(methylamino)methyl]phenyl]isoxazol-5-yl]-5-(4-isopropylsulfonylphenyl)pyrazin-2-amine]	62	–	39
CC(C)(C#N)c1cc(-c2cnc(N)c(-c3cc(-c4ccc(CNC5CCOCC5)cc4)no3)n2)ccn1 [Compound I-1, 2-(4-(5-amino-6-(3-(4-((tetrahydro-2H-pyran-4-ylamino)methyl)phenyl)isoxazol-5-yl)pyrazin-2-yl)pyridin-2-yl)-2-methylpropanenitrile]	–	< 1	–

From patent publication US10208027B2, “Processes for preparing ATR inhibitors” (Vertex Pharmaceuticals Incorporated, priority 2011, dated 2019)
